Test results as given in patent publication US9682941B2, “Substituted biphenyl analogues as dual inhibitors of aromatase and sulfatase” (ESTRYX PHARMA LIMITED, priority 2013, dated 2017).

Tests used:
steroid sulfatase = biological target: T1, steroid sulfatase (Homo sapiens, UniProt P08842); experiment: Steroid sulfatase (STS) inhibition assay in JEG-3 cells ([6,7-3H] estrone sulfate); assay type: cell-based; settings: 1 hour at 37° C., duplicate
T1 construct: JEG-3 which constitutively expresses high amount of aromatase and steroid sulfatase; endogenous in cells; host or cells: JEG-3
T1 sequence (P08842 22-583): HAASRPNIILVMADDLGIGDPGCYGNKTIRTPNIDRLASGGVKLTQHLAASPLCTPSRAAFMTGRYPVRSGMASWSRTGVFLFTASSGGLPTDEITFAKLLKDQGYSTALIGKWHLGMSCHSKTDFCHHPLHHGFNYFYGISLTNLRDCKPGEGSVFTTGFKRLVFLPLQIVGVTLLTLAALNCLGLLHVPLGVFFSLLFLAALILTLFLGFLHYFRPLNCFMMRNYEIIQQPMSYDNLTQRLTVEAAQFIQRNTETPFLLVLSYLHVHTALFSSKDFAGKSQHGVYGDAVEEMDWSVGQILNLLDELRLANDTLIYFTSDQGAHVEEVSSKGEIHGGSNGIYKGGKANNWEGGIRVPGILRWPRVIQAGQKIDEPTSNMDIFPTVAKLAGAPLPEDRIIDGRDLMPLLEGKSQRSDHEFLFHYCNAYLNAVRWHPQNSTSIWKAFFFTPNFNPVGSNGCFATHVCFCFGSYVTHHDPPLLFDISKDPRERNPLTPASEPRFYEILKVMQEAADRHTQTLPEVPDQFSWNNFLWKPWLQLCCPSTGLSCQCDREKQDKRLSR
Method: (§1) Aromatase and steroid sulfatase enzymes inhibitions were evaluated in the human chorionic carcinoma cell line JEG-3 which constitutively expresses high amount of aromatase and steroid sulfatase.
For STS assay, JEG-3 cells were seeded into 24-well culture plates at 150,000 cells/ml/well and maintained in MEM containing supplements overnight. When reaching 80% confluent, the cells were washed once with serum-free MEM, loaded with 1 ml of substrate mix containing [6,7-3H] Estrone sulfate (E1S, 0.6 μCi/ml) and [4-14C] Estrone (E1, 4 nCi/ml) in the presence of compounds in a concentration series, and incubated for 1 hour at 37° C. The product [3H]E1 was separated from E1S by toluene partition using [4-14C]E1 to monitor extraction procedural losses, and the toluene fraction radioactivity was measured by a MicroBeta scintillation counter.
(§2) Experiments are performed in duplicate. The inhibitory concentration of 50% of the enzymatic activity is calculated.

aromatase = biological target: T2, aromatase (Homo sapiens, UniProt P11511); experiment: Aromatase inhibition assay in JEG-3 cells ([1β-3H] androstenedione, tritiated water release); assay type: cell-based; settings: 1.25 hour incubation, duplicate
T2 construct: JEG-3 which constitutively expresses high amount of aromatase and steroid sulfatase; endogenous in cells; host or cells: JEG-3
T2 sequence (P11511 1-503): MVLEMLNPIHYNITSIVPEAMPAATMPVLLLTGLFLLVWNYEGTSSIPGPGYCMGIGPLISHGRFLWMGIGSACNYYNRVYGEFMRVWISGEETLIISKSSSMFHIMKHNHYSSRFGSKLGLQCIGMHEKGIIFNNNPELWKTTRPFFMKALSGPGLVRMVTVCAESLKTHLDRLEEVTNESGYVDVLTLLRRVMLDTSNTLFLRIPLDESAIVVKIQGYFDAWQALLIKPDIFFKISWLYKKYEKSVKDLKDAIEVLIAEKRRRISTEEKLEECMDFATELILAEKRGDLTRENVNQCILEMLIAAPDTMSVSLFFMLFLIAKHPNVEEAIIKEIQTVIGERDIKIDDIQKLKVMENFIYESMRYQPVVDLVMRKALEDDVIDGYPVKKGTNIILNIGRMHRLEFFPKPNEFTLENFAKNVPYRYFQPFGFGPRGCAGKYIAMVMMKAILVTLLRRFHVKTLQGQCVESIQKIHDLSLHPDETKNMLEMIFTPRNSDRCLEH
Method: as §1
For aromatase inhibition assay, JEG-3 cells were seeded into 96-well plates at 35,000 cells/well and maintained in MEM containing supplements. When reaching 80% confluent, the cells were washed once with serum-free MEM, incubated with [1β-^3H] androstenedione (A4, 0.2 μCi/ml) for 1.25 hour in the presence of the test substances added in a concentration series. The product, tritiated water (^3H2O), was separated using 2.5% (w/v) dextran-coated charcoal at 4-8° C. for 2 hours. The supernatant radioactivity was measured by a MicroBeta scintillation counter.
as §2

Row | Compound | IC50 (steroid sulfatase) | IC50 (aromatase)
1 | CN(c1cnc(C#N)c(-c2ccc(OS(N)(=O)=O)cc2)n1)n1cnc2ccccc21 [Example 34, 4-(6-((1H-Benzo[d]imidazol-1-yl)(methyl)amino)-3-cyanopyrazin-2-yl)phenyl sulfamate] | 35.7 nM | 8.4 nM
2 | N#Cc1ccc(Nn2nnc3cccnc32)cc1-c1ccc(OS(N)(=O)=O)cc1 [Example 35, 5′-(3H-[1,2,3]Triazolo[4,5-b]pyridin-3-ylamino)-2′-cyano-[1,1′-biphenyl]-4-yl sulfamate] | 29.4 nM | 5.1 nM
3 | CN(c1ccc(C#N)c(-c2ccc(OS(N)(=O)=O)cn2)c1)n1cnc2ccccc21 [Example 37, 6-(5-((1H-Benzo[d]imidazol-1-yl)(methyl)amino)-2-cyanophenyl)pyridin-3-yl sulfamate] | 41.8 nM | 2.4 nM
4 | N#Cc1ncc(Nn2cnc3ccccc32)cc1-c1ccc(OS(N)(=O)=O)cc1 [Example 38, 4-(5-(1H-Benzo[d]imidazol-1-ylamino)-2-cyanopyridin-3-yl)phenyl sulfamate] | 19.1 nM | 2.7 nM
5 | CN(c1cnc(C#N)c(-c2ccc(OS(N)(=O)=O)cc2)c1)n1cnc2ccccc21 [Example 39, 4-(5-((1H-Benzo[d]imidazol-1-yl)(methyl)amino)-2-cyanopyridin-3-yl)phenyl sulfamate] | > 60 nM | 1.5 nM
6 | N#Cc1ncc(Nn2cnc3cccnc32)nc1-c1ccc(OS(N)(=O)=O)cc1 [Example 40, 4-(6-(3H-Imidazo[4,5-b]pyridin-3-ylamino)-3-cyanopyrazin-2-yl)phenyl sulfamate] | 18.8 nM | > 60 nM
7 | N#Cc1ccc(Nn2cnc3ccccc32)cc1-c1ccc(OS(N)(=O)=O)cn1 [Example 41, 6-(5-(1H-Benzo[d]imidazol-1-ylamino)-2-cyanophenyl)pyridin-3-yl sulfamate] | 9.3 nM | 2 nM
8 | N#Cc1ccc(Cn2cnc3ccccc32)nc1-c1ccc(OS(N)(=O)=O)cn1 [Example 42, 6′-((1H-Benzo[d]imidazol-1-yl)methyl)-3′-cyano-[2,2′-bipyridin]-5-yl sulfamate] | > 60 nM | 41.9 nM
9 | N#Cc1ncc(Nn2cnc3cccnc32)cc1-c1ccc(OS(N)(=O)=O)cc1 [Example 43, 4-(5-(3H-Imidazo[4,5-b]pyridin-3-ylamino)-2-cyanopyridin-3-yl)phenyl sulfamate] | > 60 nM | 11.8 nM
10 | CN(c1cnc(C#N)c(-c2ccc(OS(N)(=O)=O)cc2)n1)n1cnc2cccnc21 [Example 44, 4-(6-((3H-Imidazo[4,5-b]pyridin-3-yl)(methyl)amino)-3-cyanopyrazin-2-yl)phenyl sulfamate] | > 60 nM | 5.8 nM
11 | CN(c1cnc(C#N)c(-c2ccc(OS(N)(=O)=O)cc2)c1)n1cnc2cccnc21 [Example 45, 4-(5-((3H-Imidazo[4,5-b]pyridin-3-yl)(methyl)amino)-2-cyanopyridin-3-yl)phenyl sulfamate] | > 60 nM | 2.1 nM
12 | N#Cc1ccc(Nn2cnc3cccnc32)nc1-c1ccc(OS(N)(=O)=O)cc1 [Example 46, 4-(6-(3H-Imidazo[4,5-b]pyridin-3-ylamino)-3-cyanopyridin-2-yl)phenyl sulfamate] | 39.5 nM | 21.7 nM
13 | N#Cc1cnc(Nn2cnc3cccnc32)nc1-c1ccc(OS(N)(=O)=O)cc1 [Example 47, 4-(2-(3H-Imidazo[4,5-b]pyridin-3-ylamino)-5-cyanopyrimidin-4-yl)phenyl sulfamate] | 44.1 nM | 56.1 nM
14 | CN(c1ncc(C#N)c(-c2ccc(OS(N)(=O)=O)cc2)n1)n1cnc2cccnc21 [Example 48, 4-(2-((3H-Imidazo[4,5-b]pyridin-3-yl)(methyl)amino)-5-cyanopyrimidin-4-yl)phenyl sulfamate] | > 60 nM | 5.8 nM
15 | CN(c1ccc(C#N)c(-c2ccc(OS(N)(=O)=O)cc2)n1)n1cnc2cccnc21 [Example 49, 4-(6-((3H-Imidazo[4,5-b]pyridin-3-yl)(methyl)amino)-3-cyanopyridin-2-yl)phenyl sulfamate] | > 60 nM | 3.7 nM
16 | N#Cc1ncc(Cn2cnc3cccnc32)cc1-c1ccc(OS(N)(=O)=O)cc1 [Example 50, 4-(5-((3H-imidazo[4,5-b]pyridin-3-yl)methyl)-2-cyanopyridin-3-yl)phenyl sulfamate] | > 60 nM | 16.3 nM
17 | N#Cc1ncc(Cn2cnc3cc(F)c(F)cc32)cc1-c1ccc(OS(N)(=O)=O)cc1 [Example 51, 4-(2-Cyano-5-((5,6-difluoro-1H-benzo[d]imidazol-1-yl)methyl)pyridin-3-yl)phenyl sulfamate] | 15.5 nM | 2.2 nM
18 | N#Cc1cnc(Cn2cnc3cc(F)c(F)cc32)nc1-c1ccc(OS(N)(=O)=O)cc1 [Example 52, 4-(5-Cyano-2-((5,6-difluoro-1H-benzo[d]imidazol-1-yl)methyl)pyrimidin-4-yl)phenyl sulfamate] | 5.4 nM | 2.9 nM
